Like-named read-outs stand apart in the source and are kept apart here.
Tests used:
WT hDAT [1] = target: T1, WT hDAT (Homo sapiens, UniProt Q01959); experiment: Kinetic analysis of [3H]DA uptake in the presence or absence of PMA or BIM; type: cell-based; conditions: 30 min preincubation
T1 construct: Synthetic cDNA encoding hDAT subcloned into pcDNA3.1+; expressed in transfected cells; host or cells: PC12 cells (ATCC CRL-1721), transient transfection with pcDNA3.1+ plasmid, Lipofectamine 2000
Experimental: (§1) To determine whether H547A-induced increase in Vmax was mediated by a phosphorylation-dependent mechanism, kinetic analysis of [^3H]DA uptake was measured in the presence or absence of PKC activator PMA (Tocris, Bristol, UK) or PKC inhibitor BIM (Sigma-Aldrich, St. Louis, MO). The concentrations were chosen based on previous reports. In brief, intact PC12 cells transfected with WT or H547A-hDAT were preincubated with or without PMA or BIM (1 μM, final concentration) for 30 min at 37 °C or room temperature and then incubated with six concentrations of mixed [^3H]DA for 8 min as described above. Nonspecific uptake of each concentration of [^3H]DA (in the presence of 10 μM nomifensine) was subtracted from total uptake to calculate specific DAT-mediated uptake.

H547A-hDAT [2] = target: T2, H547A-hDAT (Homo sapiens, UniProt Q01959, H547A); experiment: as above; type: cell-based; conditions: 1 μM PMA, 30 min preincubation, 37 °C
T2 construct: Synthetic cDNA encoding hDAT subcloned into pcDNA3.1+; expressed in transfected cells; host or cells: PC12 cells (ATCC CRL-1721), transient transfection with pcDNA3.1+ plasmid
Experimental: as §1

H547D-hDAT = target: T3, H547D-hDAT (Homo sapiens, UniProt Q01959, H547D); experiment: Inhibition of [3H]DA uptake in intact transfected PC12 cells; type: cell-based
T3 construct: Synthetic cDNA encoding hDAT subcloned into pcDNA3.1+; expressed in transfected cells; host or cells: PC12 cells (ATCC CRL-1721), transient transfection with pcDNA3.1+ plasmid
Experimental: (§2) Cells were lysed in 500 μl of 1% SDS for an hour and radioactivity was measured using a liquid scintillation counter (model Tri-Carb 2900TR; PerkinElmer Life and Analytical Sciences, Waltham, MA). Vmax and Km were determined using Prism 5.0 (GraphPad Software Inc., San Diego, CA).
(§3) Results are presented as mean ± SEM, and n represents the number of independent experiments for each experiment group. Kinetic parameters (Vmax, Km, Bmax, and Kd) were determined from saturation curves by nonlinear regression analysis using a one-site model with variable slope. […] For experiments involving comparisons between unpaired samples, unpaired Student’s t test was used to assess any difference in the kinetic parameters (Vmax, Km, Bmax, Kd or IC50) between WT and mutant; log-transformed values of IC50, Km or Kd were used for the statistical comparisons. Significant differences between samples were analyzed with separate ANOVAs followed by post-hoc tests, as indicated in the results Section of each experiment. All statistical analyses were performed using IBM SPSS Statistics version 20, and differences were considered significant at p < 0.05.

WT hDAT [3] = target: T1, WT hDAT; experiment: as above; type: cell-based
Experimental: as §2, §3

H547A-hDAT [4] = target: T2, H547A-hDAT; type: cell-based
Experimental: as §2, §3

WT hDAT [5] = target: T1, WT hDAT; experiment: Competitive inhibition / modulation of [3H]WIN 35,428 binding in intact transfected PC12 cells
H547A-hDAT [6] = target: T2, H547A-hDAT; experiment: as above; conditions: Zn2+ 100 μM

T2 sequence (Q01959 whole entry H547A): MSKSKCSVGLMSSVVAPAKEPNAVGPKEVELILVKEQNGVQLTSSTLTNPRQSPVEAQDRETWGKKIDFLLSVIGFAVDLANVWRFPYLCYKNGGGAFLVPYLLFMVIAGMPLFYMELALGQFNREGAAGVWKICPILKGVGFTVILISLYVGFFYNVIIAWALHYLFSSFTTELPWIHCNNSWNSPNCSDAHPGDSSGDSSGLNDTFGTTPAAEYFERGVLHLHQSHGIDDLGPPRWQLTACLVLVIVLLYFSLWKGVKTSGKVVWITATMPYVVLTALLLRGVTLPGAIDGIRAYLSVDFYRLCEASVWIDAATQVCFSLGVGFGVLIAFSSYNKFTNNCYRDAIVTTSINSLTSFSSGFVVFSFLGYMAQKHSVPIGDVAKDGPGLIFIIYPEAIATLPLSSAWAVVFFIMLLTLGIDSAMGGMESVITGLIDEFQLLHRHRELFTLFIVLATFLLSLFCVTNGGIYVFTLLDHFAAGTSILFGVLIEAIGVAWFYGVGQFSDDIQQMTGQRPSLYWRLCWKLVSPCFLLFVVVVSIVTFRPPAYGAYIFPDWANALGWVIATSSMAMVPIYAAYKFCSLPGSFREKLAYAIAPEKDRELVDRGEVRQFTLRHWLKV
T1 sequence (Q01959 whole entry): as the sequence (Q01959 whole entry H547A) above, with A547H counted along it
T3 sequence (Q01959 whole entry H547D): as the sequence (Q01959 whole entry H547A) above, with A547D counted along it

Structure (SMILES): CN(C)CCCn1cc(C2=C(c3c[nH]c4ccccc34)C(=O)NC2=O)c2ccccc21 [BIM, bisindolylmaleimide-I]
- increase in the Vmax of [3H]DA uptake relative to control (WT hDAT [1]; 1 μM BIM): 98%

Structure (SMILES): CCCCCCCCCCCCCC(=O)O[C@@H]1[C@@H](C)[C@@]2(O)[C@@H](C=C(CO)C[C@]3(O)C(=O)C(C)=C[C@@H]23)[C@@H]2C(C)(C)[C@]12OC(C)=O [PMA, phorbol 12-myristate 13-acetate]
- decrease in the Vmax of [3H]DA uptake compared to control (H547A-hDAT [2]): 60%
- decrease in the Vmax of [3H]DA uptake compared to control (WT hDAT [1]; 1 μM PMA, 37 °C): 40%

Structure (SMILES): [Cl-].[Cl-].[Zn+2] [Zn^2+, ZnCl2]
- decrease in [3H]DA uptake compared to control (H547D-hDAT; Zn2+ 10 μM): 53%
- decrease in [3H]DA uptake compared to control (H547D-hDAT; Zn2+ 100 μM): 60%
- decrease in [3H]DA uptake compared to control (WT hDAT [3]; Zn2+ 10 μM): 25%
- decrease in [3H]DA uptake compared to control (WT hDAT [3]; Zn2+ 100 μM): 37%
- decrease in [3H]DA uptake compared to control (H547A-hDAT [4]; Zn2+ 10 μM, not significant): 10%
- decrease in [3H]DA uptake compared to control (H547A-hDAT [4]; Zn2+ 100 μM): 38%
- increase in [3H]WIN 35,428 binding (WT hDAT [5]; Zn2+ 10 μM): 80%
- increase in [3H]WIN 35,428 binding (WT hDAT [5]; Zn2+ 100 μM): 82%
- increase in [3H]WIN 35,428 binding (H547A-hDAT [6]): 27%
